# Laboratory results taken from patent US20230340406A1, “METHODS AND COMPOSITIONS FOR PRODUCING STEM CELL DERIVED SPINAL GABA INHIBITORY NEURONS FOR USE IN TREATMENT OF SPINAL CORD INJURY” (BrainXell, Inc., priority 2020, published 2023).
# System: SCI model in rats
# Assay: Spasticity: amplitude of the Hoffman reflex (H-reflex)
# Assay type: in vivo, rat
# Details: for H % following CNO: 12 weeks
# Description: Taking advantage of the DREADD-expressing neural cells we transplanted, we asked if the therapeutic effects depend on the activity of the grafted cells.
smiles,measurement,setting,value
C[N+]1([O-])CCN(C2=Nc3cc(Cl)ccc3Nc3ccccc32)CC1 [CNO],H % following CNO injection,"cell-transplanted rats (DREADD-expressing cells), 3 mg/kg, 6 weeks, 2 Hz",47%±4.12%
same,decrease of H % following CNO injection,"cell-transplanted rats, 3 mg/kg, 6 weeks, 1 Hz",not at 1 Hz
same,H % following CNO injection,"cell-transplanted rats, 3 mg/kg, 6 weeks, 5 Hz",28.21%±5.63%
same,H % following CNO,"cell-transplanted rats, 1 Hz",26.05%±5.64%
same,H % following CNO,"cell-transplanted rats, 2 Hz",17.57%±4.98%
same,H % following CNO,"cell-transplanted rats, 5 Hz",9.09%±1.52%
same,change of H % in response to CNO treatment,"control animals: sham operation, SCI, SCI injected with medium",did not show any changes
